In PubChem BioAssay (NCI):
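How tested: cells in 96-well plates exposed to compound for 48 hours at five concentrations. GI50 = concentration required for 50% inhibition of growth. The concentration for full growth arrest is given as TGI.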

Columns and labels:
Assay in all cases: NCI tumour cell line growth inhibition, 48 h
HOP-62 NSCLC = tested on: HOP-62 NSCLC
COLO 205 colon = tested on: COLO 205 colon
UO-31 renal = tested on: UO-31 renal
SK-MEL-2 melanoma = tested on: SK-MEL-2 melanoma
SF-268 CNS = tested on: SF-268 CNS
UACC-62 melanoma = tested on: UACC-62 melanoma
NCI-H460 lung = tested on: NCI-H460 lung
HCT-116 colon = tested on: HCT-116 colon
SNB-19 CNS = tested on: SNB-19 CNS
MALME-3M melanoma = tested on: MALME-3M melanoma
NCI/ADR-RES ovarian = tested on: NCI/ADR-RES ovarian
MOLT-4 leukemia = tested on: MOLT-4 leukemia
RPMI-8226 leukemia = tested on: RPMI-8226 leukemia
DU-145 prostate = tested on: DU-145 prostate
SF-295 CNS = tested on: SF-295 CNS
BT-549 breast = tested on: BT-549 breast
OVCAR-5 ovarian = tested on: OVCAR-5 ovarian
MDA-N = tested on: MDA-N
A549 NSCLC = tested on: A549 NSCLC
CCRF-CEM leukemia = tested on: CCRF-CEM leukemia
CAKI-1 renal = tested on: CAKI-1 renal
SR leukemia = tested on: SR leukemia
MDA-MB-231 breast = tested on: MDA-MB-231 breast
IGROV1 ovarian = tested on: IGROV1 ovarian
SK-OV-3 ovarian = tested on: SK-OV-3 ovarian
K-562 leukemia = tested on: K-562 leukemia
TK-10 renal = tested on: TK-10 renal
KM12 colon = tested on: KM12 colon
M14 melanoma = tested on: M14 melanoma
SF-539 CNS = tested on: SF-539 CNS
LOX IMVI melanoma = tested on: LOX IMVI melanoma
SN12C renal = tested on: SN12C renal
SNB-75 CNS = tested on: SNB-75 CNS
MCF7 breast = tested on: MCF7 breast
786-0 renal = tested on: 786-0 renal
SK-MEL-5 melanoma = tested on: SK-MEL-5 melanoma
UACC-257 melanoma = tested on: UACC-257 melanoma
A498 renal = tested on: A498 renal
NCI-H522 lung = tested on: NCI-H522 lung
OVCAR-8 ovarian = tested on: OVCAR-8 ovarian
ACHN renal = tested on: ACHN renal
HS 578T breast = tested on: HS 578T breast
PC-3 prostate = tested on: PC-3 prostate
SK-MEL-28 melanoma = tested on: SK-MEL-28 melanoma
NCI-H23 lung = tested on: NCI-H23 lung
HT29 colon = tested on: HT29 colon
HL-60(TB) leukemia = tested on: HL-60(TB) leukemia
SW-620 colon = tested on: SW-620 colon
OVCAR-4 ovarian = tested on: OVCAR-4 ovarian
U251 CNS = tested on: U251 CNS
MDA-MB-435 = tested on: MDA-MB-435
EKVX NSCLC = tested on: EKVX NSCLC
RXF 393 renal = tested on: RXF 393 renal
HCT-15 colon = tested on: HCT-15 colon
OVCAR-3 ovarian = tested on: OVCAR-3 ovarian

How did the GI50 (HOP-62 NSCLC) turn out when `CCC(C)C1=NC(C(=O)N/C=C\c2c[nH]c3cc(Br)c(Br)cc23)(C(C)C)NC1=O` (stereo not given) was run?
The GI50 was 19.8 µM.

What about the TGI (HOP-62 NSCLC) of the same molecule?
Its TGI is 36.3 µM.

What about the GI50 (COLO 205 colon) of the same molecule?
Its GI50 is 14 µM.

And the TGI (COLO 205 colon)?
Its TGI is 29.3 µM.

What about the GI50 (UO-31 renal) of the same molecule?
Its GI50 is 12.2 µM.

What about the TGI (UO-31 renal) of the same molecule?
The TGI was 24.6 µM.

And the GI50 (SK-MEL-2 melanoma)?
The GI50 was 12.3 µM.

What about the TGI (SK-MEL-2 melanoma) of the same molecule?
Its TGI is 26.7 µM.

And the GI50 (SF-268 CNS)?
Its GI50 is 15 µM.

And the TGI (SF-268 CNS)?
The TGI was 30.1 µM.

What about the GI50 (UACC-62 melanoma) of the same molecule?
Its GI50 is 12 µM.

What about the TGI (UACC-62 melanoma) of the same molecule?
Its TGI is 26.9 µM.

And the GI50 (NCI-H460 lung)?
The GI50 was 12.9 µM.

And the TGI (NCI-H460 lung)?
The TGI was 26.7 µM.

And the GI50 (HCT-116 colon)?
The GI50 was 15.6 µM.

And the TGI (HCT-116 colon)?
The TGI was 31.3 µM.

What about the GI50 (SNB-19 CNS) of the same molecule?
Its GI50 is 18.5 µM.

What about the TGI (SNB-19 CNS) of the same molecule?
Its TGI is 35 µM.

What about the GI50 (MALME-3M melanoma) of the same molecule?
Its GI50 is 20.6 µM.

What about the TGI (MALME-3M melanoma) of the same molecule?
Its TGI is 39.3 µM.

What about the GI50 (NCI/ADR-RES ovarian) of the same molecule?
The GI50 was 27.3 µM.

And the TGI (NCI/ADR-RES ovarian)?
The TGI was over 100 µM.

And the GI50 (MOLT-4 leukemia)?
The GI50 was 15.2 µM.

What about the TGI (MOLT-4 leukemia) of the same molecule?
The TGI was 30.3 µM.

What about the GI50 (RPMI-8226 leukemia) of the same molecule?
The GI50 was 8.75 µM.

And the TGI (RPMI-8226 leukemia)?
The TGI was 39 µM.

What about the GI50 (DU-145 prostate) of the same molecule?
The GI50 was 14.3 µM.

And the TGI (DU-145 prostate)?
Its TGI is 27.4 µM.

And the GI50 (SF-295 CNS)?
The GI50 was 15.9 µM.

And the TGI (SF-295 CNS)?
Its TGI is 30.1 µM.

What about the GI50 (BT-549 breast) of the same molecule?
Its GI50 is 23.7 µM.

What about the TGI (BT-549 breast) of the same molecule?
The TGI was 71.2 µM.

And the GI50 (OVCAR-5 ovarian)?
The GI50 was 15.4 µM.

What about the TGI (OVCAR-5 ovarian) of the same molecule?
The TGI was 29 µM.

What about the GI50 (MDA-N) of the same molecule?
Its GI50 is 15.4 µM.

What about the TGI (MDA-N) of the same molecule?
The TGI was 30 µM.

What about the GI50 (A549 NSCLC) of the same molecule?
The GI50 was 11.7 µM.

And the TGI (A549 NSCLC)?
The TGI was 26.5 µM.

What about the GI50 (CCRF-CEM leukemia) of the same molecule?
Its GI50 is 18.2 µM.

What about the TGI (CCRF-CEM leukemia) of the same molecule?
Its TGI is over 100 µM.

And the GI50 (CAKI-1 renal)?
The GI50 was 12.2 µM.

What about the TGI (CAKI-1 renal) of the same molecule?
Its TGI is 26.8 µM.

What about the GI50 (SR leukemia) of the same molecule?
The GI50 was 17 µM.

And the TGI (SR leukemia)?
The TGI was 37.1 µM.

What about the GI50 (MDA-MB-231 breast) of the same molecule?
Its GI50 is 17.4 µM.

What about the TGI (MDA-MB-231 breast) of the same molecule?
The TGI was 39.3 µM.

And the GI50 (IGROV1 ovarian)?
The GI50 was 6.36 µM.

And the TGI (IGROV1 ovarian)?
Its TGI is 19.7 µM.

And the GI50 (SK-OV-3 ovarian)?
The GI50 was 18.6 µM.

And the TGI (SK-OV-3 ovarian)?
Its TGI is 34.9 µM.

And the GI50 (K-562 leukemia)?
The GI50 was 16.5 µM.

And the TGI (K-562 leukemia)?
Its TGI is 35.8 µM.

What about the GI50 (TK-10 renal) of the same molecule?
The GI50 was 18.5 µM.

What about the TGI (TK-10 renal) of the same molecule?
Its TGI is 35.7 µM.

And the GI50 (KM12 colon)?
The GI50 was 18.5 µM.

What about the TGI (KM12 colon) of the same molecule?
The TGI was 44.3 µM.

And the GI50 (M14 melanoma)?
The GI50 was 14 µM.

What about the TGI (M14 melanoma) of the same molecule?
Its TGI is 27.3 µM.

And the GI50 (SF-539 CNS)?
The GI50 was 21 µM.

And the TGI (SF-539 CNS)?
Its TGI is 42.5 µM.

And the GI50 (LOX IMVI melanoma)?
The GI50 was 16.6 µM.

What about the TGI (LOX IMVI melanoma) of the same molecule?
Its TGI is 31.9 µM.

And the GI50 (SN12C renal)?
The GI50 was 18.3 µM.

And the TGI (SN12C renal)?
Its TGI is 37.5 µM.

And the GI50 (SNB-75 CNS)?
The GI50 was 3.37 µM.

What about the TGI (SNB-75 CNS) of the same molecule?
Its TGI is 10.2 µM.

What about the GI50 (MCF7 breast) of the same molecule?
The GI50 was 13.6 µM.

What about the TGI (MCF7 breast) of the same molecule?
The TGI was 29.6 µM.

And the GI50 (786-0 renal)?
Its GI50 is 20.2 µM.

And the TGI (786-0 renal)?
The TGI was 42.9 µM.

And the GI50 (SK-MEL-5 melanoma)?
The GI50 was 11.7 µM.

What about the TGI (SK-MEL-5 melanoma) of the same molecule?
Its TGI is 25.1 µM.

And the GI50 (UACC-257 melanoma)?
Its GI50 is 15.3 µM.

And the TGI (UACC-257 melanoma)?
The TGI was 28.6 µM.

What about the GI50 (A498 renal) of the same molecule?
Its GI50 is 17.8 µM.

What about the TGI (A498 renal) of the same molecule?
Its TGI is 35 µM.

What about the GI50 (NCI-H522 lung) of the same molecule?
The GI50 was 13.5 µM.

What about the TGI (NCI-H522 lung) of the same molecule?
The TGI was 26.4 µM.

And the GI50 (OVCAR-8 ovarian)?
The GI50 was 32.3 µM.

What about the TGI (OVCAR-8 ovarian) of the same molecule?
Its TGI is over 100 µM.

And the GI50 (ACHN renal)?
Its GI50 is 18.3 µM.

What about the TGI (ACHN renal) of the same molecule?
Its TGI is 39.6 µM.

What about the GI50 (HS 578T breast) of the same molecule?
Its GI50 is 21.4 µM.

And the TGI (HS 578T breast)?
Its TGI is 68.4 µM.

And the GI50 (PC-3 prostate)?
The GI50 was 10.1 µM.

And the TGI (PC-3 prostate)?
The TGI was 25.1 µM.

And the GI50 (SK-MEL-28 melanoma)?
Its GI50 is 15 µM.

What about the TGI (SK-MEL-28 melanoma) of the same molecule?
The TGI was 32.7 µM.

And the GI50 (NCI-H23 lung)?
The GI50 was 16 µM.

And the TGI (NCI-H23 lung)?
Its TGI is 29.4 µM.

And the GI50 (HT29 colon)?
The GI50 was 18.3 µM.

What about the TGI (HT29 colon) of the same molecule?
The TGI was 44.4 µM.

And the GI50 (HL-60(TB) leukemia)?
The GI50 was 33.7 µM.

What about the TGI (HL-60(TB) leukemia) of the same molecule?
The TGI was 59.6 µM.

What about the GI50 (SW-620 colon) of the same molecule?
The GI50 was 16.9 µM.

And the TGI (SW-620 colon)?
The TGI was 38.2 µM.

What about the GI50 (OVCAR-4 ovarian) of the same molecule?
Its GI50 is 11.1 µM.

What about the TGI (OVCAR-4 ovarian) of the same molecule?
The TGI was 32.3 µM.

And the GI50 (U251 CNS)?
Its GI50 is 14.1 µM.

And the TGI (U251 CNS)?
Its TGI is 29 µM.

What about the GI50 (MDA-MB-435) of the same molecule?
The GI50 was 12 µM.

And the TGI (MDA-MB-435)?
Its TGI is 24.4 µM.

What about the GI50 (EKVX NSCLC) of the same molecule?
The GI50 was 5.98 µM.

What about the TGI (EKVX NSCLC) of the same molecule?
Its TGI is 20 µM.

And the GI50 (RXF 393 renal)?
The GI50 was 15.4 µM.

And the TGI (RXF 393 renal)?
The TGI was 29.2 µM.

And the GI50 (HCT-15 colon)?
Its GI50 is 28.1 µM.

And the TGI (HCT-15 colon)?
The TGI was 79.6 µM.

What about the GI50 (OVCAR-3 ovarian) of the same molecule?
Its GI50 is 5.38 µM.

And the TGI (OVCAR-3 ovarian)?
The TGI was 18.4 µM.
